Results as given in publication PMC2229105 (The Journal of General Physiology, 1992).
Like-named read-outs stand apart in the source and are kept apart here.

Tests used:
[1] = system: T-type Ca channels (guinea pig atrial cells); experiment: whole-cell patch clamp, tail current analysis, modulated receptor theory; assay type: cell-based, Cavia porcellus; details: read-out: KI, inactivated state (apparent)
[2] = system: T-type Ca channels in GH3 cells; experiment: as above; assay type: cell-based, Rattus norvegicus; details: read-out: KI; inactivated state (apparent); six experiments

In the case of `CC1=C(C(=O)OC(C)C)[C@@H](c2cccc3nonc23)C([N+](=O)[O-])=C(C)N1` [(-)-(R)-202-791], the Kd ([1]; 30-s prepulse) is reported as 15.3 nM.
Compound `CC(C)COCC(CN(Cc1ccccc1)c1ccccc1)N1CCCC1` (stereo not shown) [bepridil] has a Kd ([1]; from block by 0.5 µM drug) of 1240 nM.
`CCOC(=O)C1=C(C)NC(C)=C(C(=O)OC)C1c1cccc(Cl)c1Cl` (stereo not shown) [felodipine] gave a Kd [2] of 680 ± 220 nM.
Work on `COC(=O)C1=C(C)NC(C)=C(C(=O)OC(C)C)C1c1cccc2nonc12` (stereo not shown) [isradipine] yielded a Kd ([1]; 30-s prepulse) of 20.4 nM.
